Assay results reported in ChEMBL document CHEMBL4364317, “2-O-(2-chlorobenzoyl) maslinic acid triggers apoptosis in A2780 human ovarian carcinoma cells” (Eur J Med Chem, 2019).
Activity calls are given as the source filed them. The calls are words filed in the database; no cut-off is given here.

Key:
HT-29 = experiment: Anticancer activity against human HT-29 cells measured after 96 hrs by sulforhodamine B assay; type: functional, cell-based; conditions: HT-29, 96 h
MCF7 = experiment: Anticancer activity against human MCF7 cells measured after 96 hrs by sulforhodamine B assay; type: functional, cell-based; conditions: MCF7, 96 h
A549 = experiment: Anticancer activity against human A549 cells measured after 96 hrs by sulforhodamine B assay; type: functional, cell-based; conditions: A549, 96 h
SW-1736 = experiment: Anticancer activity against human SW1736 cells measured after 96 hrs by sulforhodamine B assay; type: functional, cell-based; conditions: SW-1736, 96 h
DLD-1 = experiment: Anticancer activity against human DLD1 cells measured after 96 hrs by sulforhodamine B assay; type: functional, cell-based; conditions: DLD-1, 96 h
8505C = experiment: Anticancer activity against human 8505C cells measured after 96 hrs by sulforhodamine B assay; type: functional, cell-based
A253 cell line = experiment: Anticancer activity against human A253 cells measured after 96 hrs by sulforhodamine B assay; type: functional, cell-based; conditions: A253, 96 h
NIH3T3 = experiment: Cytotoxicity against mouse NIH/3T3 cells measured after 96 hrs by sulforhodamine B assay; type: cell-based; conditions: NIH3T3, 96 h
518A2 = experiment: Anticancer activity against human 518A2 cells measured after 96 hrs by sulforhodamine B assay; type: functional, cell-based; conditions: 518A2, 96 h
A2780 [1] = experiment: Anticancer activity against human A2780 cells measured after 96 hrs by sulforhodamine B assay; type: functional, cell-based; conditions: A2780, 96 h
A2780 [2] = experiment: Induction of apoptosis in human A2780 cells assessed as loss of cell membrane integrity at 30 uM measured for 72 hrs by acridine orange/propidium iodide staining based fluorescence microscopic analysis; type: functional
A2780 [3] = experiment: Induction of apoptosis in human A2780 cells assessed as […] cell death at 30 uM measured after 24 to 72 hrs by annexin v flow cytometry analysis; type: functional, cell-based
A2780 [4] = experiment: Induction of necrosis in human A2780 cells at 30 uM measured for 72 hrs by acridine orange/propidium iodide staining based fluorescence microscopic analysis; type: functional, cell-based
A2780 [5] = experiment: Induction of apoptosis in human A2780 cells assessed as membrane blebbing at 30 uM measured for 72 hrs by acridine orange/propidium iodide staining based fluorescence microscopic analysis; type: functional, cell-based
A2780 [6] = experiment: Induction of apoptosis in human A2780 cells assessed as membrane blebbing at 15 uM measured for 72 hrs by acridine orange/propidium iodide staining based fluorescence microscopic analysis; type: functional, cell-based
A2780 [7] = experiment: Induction of apoptosis in human A2780 cells assessed as […] cell death at 15 uM measured after 24 to 72 hrs by annexin v flow cytometry analysis; type: functional, cell-based
A2780 [8] = experiment: Induction of apoptosis in human A2780 cells assessed as loss of cell membrane integrity at 15 uM measured for 72 hrs by acridine orange/propidium iodide staining based fluorescence microscopic analysis; type: functional
A2780 [9] = experiment: Induction of necrosis in human A2780 cells at 15 uM measured for 72 hrs by acridine orange/propidium iodide staining based fluorescence microscopic analysis; type: functional, cell-based

CC1(C)CC[C@]2(C(=O)O)CC[C@]3(C)C(=CC[C@@H]4[C@@]5(C)C[C@@H](OC(=O)c6cc([N+](=O)[O-])cc([N+](=O)[O-])c6)[C@H](O)C(C)(C)[C@@H]5CC[C@]43C)[C@@H]2C1
EC50 (HT-29): 11.1 µM | EC50 (MCF7): 5.1 µM | EC50 (A549): 6.1 µM | EC50 (SW-1736): 14.8 µM | EC50 (DLD-1): 7.1 µM | EC50 (8505C): 8.1 µM | EC50 (A253 cell line): 9.7 µM | EC50 (NIH3T3): 17.4 µM | EC50 (518A2): 12.1 µM | EC50 (A2780 [1]): 6.2 µM

CC1(C)CC[C@]2(C(=O)O)CC[C@]3(C)C(=CC[C@@H]4[C@@]5(C)C[C@@H](OC(=O)c6ccccc6)[C@H](O)C(C)(C)[C@@H]5CC[C@]43C)[C@@H]2C1
EC50 (HT-29): 12.7 µM | EC50 (A549): 9.1 µM | EC50 (SW-1736): 18.2 µM | EC50 (DLD-1): 10.3 µM | EC50 (8505C): 11.2 µM | EC50 (A253 cell line): 9 µM | EC50 (NIH3T3): 15 µM | EC50 (518A2): 15.5 µM | EC50 (A2780 [1]): 6.4 µM

CC1(C)CC[C@]2(C(=O)O)CC[C@]3(C)C(=CC[C@@H]4[C@@]5(C)C[C@@H](O)[C@H](OC(=O)c6ccccc6Cl)C(C)(C)[C@@H]5CC[C@]43C)[C@@H]2C1
EC50 (MCF7): 3.3 µM | EC50 (A549): 5.8 µM | EC50 (SW-1736): 12.9 µM | EC50 (DLD-1): 5.2 µM | EC50 (8505C): 6.9 µM | EC50 (A253 cell line): 5.4 µM | EC50 (NIH3T3): 7.1 µM | EC50 (518A2): 6.8 µM

CC(=O)O[C@@H]1C[C@]2(C)[C@H]3CC=C4[C@@H]5CC(C)(C)CC[C@]5(C(=O)O)CC[C@@]4(C)[C@]3(C)CC[C@H]2C(C)(C)[C@H]1O
EC50 (HT-29): 10.7 µM | EC50 (MCF7): 11.5 µM | EC50 (A549): 4.3 µM | EC50 (DLD-1): 23.1 µM | EC50 (8505C): 8.8 µM | EC50 (A253 cell line): 11 µM | EC50 (NIH3T3): 15.4 µM | EC50 (518A2): 21 µM | EC50 (A2780 [1]): 19.9 µM

CC1(C)CC[C@]2(C(=O)O)CC[C@]3(C)C(=CC[C@@H]4[C@@]5(C)C[C@@H](OC(=O)c6ccccc6F)[C@H](O)C(C)(C)[C@@H]5CC[C@]43C)[C@@H]2C1
EC50 (HT-29): 6.3 µM | EC50 (MCF7): 7.1 µM | EC50 (A549): 9.4 µM | EC50 (SW-1736): 16.9 µM | EC50 (DLD-1): 10.7 µM | EC50 (8505C): 12.6 µM | EC50 (A253 cell line): 12.9 µM | EC50 (NIH3T3): 16.9 µM | EC50 (518A2): 11.6 µM | EC50 (A2780 [1]): 6 µM

CC1(C)CC[C@]2(C(=O)O)CC[C@]3(C)C(=CC[C@@H]4[C@@]5(C)C[C@@H](O)[C@H](O)C(C)(C)[C@@H]5CC[C@]43C)[C@@H]2C1 [MASLINIC ACID]
Activity (A2780 [2]): Active | EC50 (MCF7): 24.4 µM | Activity (A2780 [3]): Active | Activity (A2780 [4]): Active | Activity (A2780 [5]): Active | EC50 (NIH3T3): 16.6 µM

CC1(C)CC[C@]2(C(=O)O)CC[C@]3(C)C(=CC[C@@H]4[C@@]5(C)C[C@@H](OC(=O)c6cccnc6Cl)[C@H](OC(=O)c6cccnc6Cl)C(C)(C)[C@@H]5CC[C@]43C)[C@@H]2C1
EC50 (HT-29): > 30 µM | EC50 (MCF7): > 30 µM | EC50 (A549): > 30 µM | EC50 (SW-1736): > 30 µM | EC50 (DLD-1): > 30 µM | EC50 (8505C): > 30 µM | EC50 (A253 cell line): > 30 µM | EC50 (NIH3T3): > 30 µM | EC50 (518A2): 17.1 µM | EC50 (A2780 [1]): 29.3 µM

CC(=O)O[C@@H]1C[C@]2(C)[C@H]3CC=C4[C@@H]5CC(C)(C)CC[C@]5(C(=O)O)CC[C@@]4(C)[C@]3(C)CC[C@H]2C(C)(C)[C@H]1OC(C)=O
EC50 (HT-29): 8.5 µM | EC50 (MCF7): 8.5 µM | EC50 (A549): 4.2 µM | EC50 (DLD-1): 17 µM | EC50 (8505C): 5.7 µM | EC50 (A253 cell line): 7.7 µM | EC50 (NIH3T3): 10.4 µM | EC50 (518A2): 14.6 µM | EC50 (A2780 [1]): 17.3 µM

CC1(C)CC[C@]2(C(=O)O)CC[C@]3(C)C(=CC[C@@H]4[C@@]5(C)C[C@@H](OC(=O)c6ccccc6Cl)[C@H](O)C(C)(C)[C@@H]5CC[C@]43C)[C@@H]2C1
EC50 (HT-29): 8.5 µM | EC50 (MCF7): 5.6 µM | Activity (A2780 [6]): Active | EC50 (A549): 7.5 µM | EC50 (SW-1736): 13.9 µM | Activity (A2780 [7]): Active | EC50 (DLD-1): 7.6 µM | EC50 (8505C): 8.9 µM | Activity (A2780 [8]): Active | EC50 (A253 cell line): 10.4 µM | EC50 (NIH3T3): 10.4 µM | Activity (A2780 [9]): Active | EC50 (518A2): 8.3 µM | EC50 (A2780 [1]): 4.7 µM

CC1(C)CC[C@]2(C(=O)O)CC[C@]3(C)C(=CC[C@@H]4[C@@]5(C)C[C@@H](OC(=O)c6ccccc6)[C@H](OC(=O)c6ccccc6)C(C)(C)[C@@H]5CC[C@]43C)[C@@H]2C1
EC50 (HT-29): 16.5 µM | EC50 (A549): 17.4 µM | EC50 (SW-1736): 19.4 µM | EC50 (DLD-1): 17.9 µM | EC50 (8505C): 16.4 µM | EC50 (A253 cell line): 12.7 µM | EC50 (NIH3T3): 23.2 µM | EC50 (A2780 [1]): 11.2 µM

CC1(C)CC[C@]2(C(=O)O)CC[C@]3(C)C(=CC[C@@H]4[C@@]5(C)C[C@@H](O)[C@H](OC(=O)c6ccccc6F)C(C)(C)[C@@H]5CC[C@]43C)[C@@H]2C1
EC50 (MCF7): 6.7 µM | EC50 (A549): 9.8 µM | EC50 (SW-1736): 21.2 µM | EC50 (DLD-1): 10.1 µM | EC50 (8505C): 12.6 µM | EC50 (A253 cell line): 6.6 µM | EC50 (NIH3T3): 12.5 µM | EC50 (518A2): 11.8 µM | EC50 (A2780 [1]): 6 µM

CC1(C)CC[C@]2(C(=O)O)CC[C@]3(C)C(=CC[C@@H]4[C@@]5(C)C[C@@H](O)[C@H](OC(=O)c6cc([N+](=O)[O-])cc([N+](=O)[O-])c6)C(C)(C)[C@@H]5CC[C@]43C)[C@@H]2C1
EC50 (HT-29): 9.4 µM | EC50 (MCF7): 4.2 µM | EC50 (SW-1736): 12.8 µM | EC50 (DLD-1): 7.2 µM | EC50 (8505C): 7.5 µM | EC50 (A253 cell line): 8.3 µM | EC50 (NIH3T3): 15.7 µM | EC50 (A2780 [1]): 5.5 µM
